Test results published in patent US7776882B2, “2-amino-3,4-dihydro-quinoline derivatives useful as inhibitors of β-secretase (BACE)” (priority 2006, dated 2010).
“And” between values parts separate entries of the source, which are not always exact repeats. Identical values can stand only once. One block for each molecule: values may come before it.

Tests used:
Assay type in all cases: biochemical
β-secretase (BACE) [1] = biological target: T1, β-secretase (BACE) (Homo sapiens, UniProt P56817); assay: In Vitro BACE % Inhibition Assay, (Aedens)-[…]-(Dabcyl K-amide) substrate (Example 12); details: for % Inhibition 3 μM: 3 μM compound; for % Inhibition 3 μM / % Inhibition 10 μM: values below about 25% (including negative) within noise; for % Inhibition 10 μM: 10 μM compound
T1 construct: purchased Panvera
Method: The following reagents were used in this assay: sodium acetate, PEG8000 (Sigma), DMSO, HEPES, (Aedens)-[…]-(Dabcyl K-amide) substrate, β-secretase (BACE) (Panvera), and 96-well plate (HE microplate, Molecular Devices).
(§1) The following assay buffers were prepared and used in this assay: (1) enzyme assay buffer (0.05 M sodium acetate, pH5, 0.1% PEG8000 (w/v)), (2) substrate assay buffer (0.05 M sodium acetate, pH5), and (3) compound vehicle (30% DMSO in 50 mM HEPES, pH 7.4).
(§2) The substrate stock solution was prepared in DMSO as a 10 mg/mL solution. The substrate working solution was prepared by diluting the 10 mg/mL stock solution with substrate assay buffer to a final concentration of 300 μg/mL. The β-secretase (BACE) working solution was prepared by diluting a 0.83 mg/mL BACE stock solution with enzyme assay buffer to a final concentration of 4 μg/mL.
(§3) Test compounds were dissolved in DMSO to 10 mM. Compounds were further diluted in vehicle to various concentrations in the range of 405 μM to 4.05 μM (13.5×final compound concentration in screening plate).
(§4) The screening procedure for this assay was as follows: 15 μL of BACE working solution was pipetted into each well of a 96-well plate. To each well was then pipetted 2 μL of test compound at the selected concentration. Test compound and BACE were then mixed with a pipettor and incubated for 20 min at room temperature. To each well was then added 10 μL of the substrate working solution. The plates were then incubated for 1 hour at room temperature. The fluorescence for each well was then measured on an LJL analyst (Ex 360 nm/Em 530 nm).
(§5) The procedure for the blank (negative control) was as follows. 15 μL of assay buffer was pipetted into each well to be used as a blank control. To each well was then added 2 μL of vehicle and 10 μL of substrate working solution. The plates were then incubated for 1 hour at room temperature. The fluorescence was measured on an LJL analyst (Ex 360 nm/Em 530 nm).
(§6) The procedure for the positive control was as follows: 15 μl of BACE working solution was pipetted into each well to be used as a positive control. To each well was then pipetted 2 μL of vehicle. Vehicle and BACE were then mixed with a pipettor and incubated for 20 min at room temperature. To each well was then added 10 μL of the substrate working solution. The plates were then incubated for 1 hour at room temperature. The fluorescence (Fl) was then measured on an LJL analyst (Ex 360 nm/Em 530 nm).
For test compounds, % inhibition was determined at each concentration as follows:
% Inhibition values of less than 30% were indistinguishable from control and are listed as ≦30% in the Table below.

β-secretase (BACE) [2] = biological target: T1, β-secretase (BACE); assay: In Vitro BACE FS1 % Inhibition Assay (Example 10); details: FS1 substrate, values below about 25% (including negative) within noise; for % Inhibition (Example 10) @ 0.3 μM / inhibition at 0.3 µM: 0.3 μM compound; for % Inhibition (Example 10) @ 1 μM / inhibition at 1 µM: 1 μM compound; for % Inhibition (Example 10) @ 3 μM / inhibition at 3 µM: 3 μM compound
Method: as §1
as §2, with “The FS1-substrate” for “The substrate”
as §3
as §4, with “of the FS1 substrate working” for “of the substrate working”
as §5, with “FS1-substrate” for “substrate”
as §6, with “follows: 15 μL of BACE” for “follows: 15 μl of BACE”, “of the FS1 substrate working” for “of the substrate working”
For test compounds, % inhibition was determined at each concentration as follows: […]

β-secretase (BACE) [3] = biological target: T1, β-secretase (BACE); assay: In Vitro BACE Assay, Ki (Example 11); details: FS1 substrate 50 μM, Km 24 μM
Method: The following reagents were used in this assay: sodium acetate, PEG8000 (Sigma), DMSO, HEPES, FS1 substrate [R(AedensE)[…]-(DabcylK)R], β-secretase (BACE) (Panvera), and 96-well plate (HE microplate, Molecular Devices).
as §1
as §2, with “The FS1-substrate” for “The substrate”
Test compounds were dissolved in DMSO at 10 mM.
(§7) The procedure for this assay was as follows: 15 μL of BACE working solution was pipetted into each well of a 96-well plate. To each well was then pipetted 2 μL of test compound at the selected concentration. Test compound and BACE were then mixed with a pipettor and incubated for 20 min at room temperature. To each well was then added 10 μL of the FS1 substrate working solution. The fluorescence for each well was then measured on a Polarstar fluorometer (Ex 390 nm/Em 520 nm) for 20 min at room temperature, reading fluorescence at 1 min intervals.
as §7, with “for the positive control” for “for this assay”, “well to be used as” for “well of”, “a positive control.” for “a 96-well plate.”, “of vehicle. Vehicle” for “of test compound at the selected concentration. Test compound”, “fluorescence” for “fluorescence for each well”
For test compounds, Ki inhibition was determined as follows: For each compound concentration and positive control, rate of cleavage of substrate (Vi, where i=compound concentration in μM) was determined as Δ Fluorescence/Δ time (min). Cleavage rates (Vi) were plotted as a function of inhibitor concentration in μM [I]. The Ki was then determined by fitting the following equation to the graph of [I] vs Vi Y=aVmax/(50+24*(1+X/Ki)),

human BACE-1 = biological target: T2, human BACE-1 (Homo sapiens, UniProt P56817); assay: In Vitro BACE Assay run by CEREP (Example 14); details: recombinant enzyme, 60 min at 37° C., pH 4.5; for inhibition at 1 µM: 1 μM compound
T2 construct: purchased CEREP (contract assay) 761-B
Method: This assay was run by CEREP (Catalog Ref. 761-B, Referred to SOP No. 1C131; ERMOLIEFF, J., LOY, J. A., KOELSCH, G. and TANG, J., Proteolytic activation of recombinant pro-memapsin 2 (pro-BACE) studied with new fluorogenic substrates, Biochemistry, (2000) Vol. 39, p. 12450).
More specifically the assay, run at 50 μL in a 96 well plate, evaluated the effect of test compound on the activity of the human BACE-1 quantified by measuring the formation of Mca-S-E-V-N-L-NH2 from Mca-S-E-V-N-L-D-A-E-F-R-K(Dnp)-R-R-NH2, using a recombinant enzyme.
The test compound, reference compound or water (control) was added to a buffer containing 0.09 M sodium acetate (pH 4.5) and 0.25 μg BACE-1. Compound interference with the fluorimetric detection method due to autofluorescence was then checked by measurements at the wavelengths defined to evaluate the enzyme activity. Thereafter, the reaction was initiated by adding 7.5 μM of the substrate Mca-S-E-V-N-L-D-A-E-F-R-K(Dnp)-R-R-NH2 and the mixture was incubated for 60 min at 37° C. For control basal measurement, the substrate was omitted from the reaction mixture. Immediately after the incubation, the fluorescence intensity emitted by the reaction product Mca-S-E-V-N-L-NH2 was measured at λex=320 nm and λem=405 nm using a microplate reader (Ultra, Tecan). The standard inhibitory reference compound was OM99-2, which was tested in each experiment at several concentrations to obtain an inhibition curve from which its IC50 value was calculated.

T2 sequence (P56817 46-501): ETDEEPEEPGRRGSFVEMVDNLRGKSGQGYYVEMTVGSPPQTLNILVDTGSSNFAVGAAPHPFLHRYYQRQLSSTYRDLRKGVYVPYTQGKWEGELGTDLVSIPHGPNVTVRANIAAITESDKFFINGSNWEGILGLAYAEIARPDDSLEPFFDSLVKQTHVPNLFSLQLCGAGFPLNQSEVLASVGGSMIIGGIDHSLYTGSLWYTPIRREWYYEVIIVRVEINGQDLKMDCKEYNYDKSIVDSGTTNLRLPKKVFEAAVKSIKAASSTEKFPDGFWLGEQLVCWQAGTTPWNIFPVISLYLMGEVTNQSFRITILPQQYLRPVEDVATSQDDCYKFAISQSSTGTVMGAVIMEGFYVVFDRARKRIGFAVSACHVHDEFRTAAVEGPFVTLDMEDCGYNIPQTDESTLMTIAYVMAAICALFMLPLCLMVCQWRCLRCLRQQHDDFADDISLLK
T1 sequence (P56817 46-501): as above

% Inhibition 3 μM (β-secretase (BACE) [1]): −8.5%
% Inhibition 10 μM (β-secretase (BACE) [1]): 9%
Structure (SMILES): CN(C(=O)CCc1cc2cc(Oc3ccccc3)ccc2nc1N)C1CCCCC1 [compound 1]

% Inhibition (Example 10) @ 0.3 μM (β-secretase (BACE) [2]): 45%
% Inhibition (Example 10) @ 1 μM (β-secretase (BACE) [2]): 78%
% Inhibition (Example 10) @ 3 μM (β-secretase (BACE) [2]): 107%
Ki (β-secretase (BACE) [3]; read-out: Ki (μM) (Example 11)): 0.23 µM
Structure (SMILES): Nc1nc2ccc(Oc3ccccc3)cc2cc1CCC(=O)NC12CC3CC(CC(C3)C1)C2 [compound 2]

inhibition at 0.3 µM (β-secretase (BACE) [2]): 58%
inhibition at 1 µM (β-secretase (BACE) [2]): 89%
inhibition at 3 µM (β-secretase (BACE) [2]): 115%
Ki (β-secretase (BACE) [3]; Ki (μM) (Example 11)): 0.49 µM
Structure (SMILES): CC1CCCC(NC(=O)CCc2cc3cc(Oc4ccccc4)ccc3nc2N)C1 (centres unmarked) [compound 3]

inhibition at 0.3 µM (β-secretase (BACE) [2]): 2%
inhibition at 1 µM (β-secretase (BACE) [2]): 42%
inhibition at 3 µM (β-secretase (BACE) [2]): 88%
Ki (β-secretase (BACE) [3]; Ki (μM) (Example 11)): 0.64 µM
Structure (SMILES): CC(C)=CCCC(C)=CCNC(=O)CCc1cc2cc(Oc3ccccc3)ccc2nc1N [compound 13]

% Inhibition (Example 10) @ 0.3 μM (β-secretase (BACE) [2]): 43%
% Inhibition (Example 10) @ 1 μM (β-secretase (BACE) [2]): 58%
% Inhibition (Example 10) @ 3 μM (β-secretase (BACE) [2]): 78%
Ki (β-secretase (BACE) [3]; read-out: Ki (μM) (Example 11)): 0.28 µM
Structure (SMILES): Nc1nc2ccc(Oc3ccccc3)cc2cc1C(CCC(=O)NC12CC3CC(CC(C3)C1)C2)C1CCCCC1 (centres unmarked) [compound 15]

inhibition at 0.3 µM (β-secretase (BACE) [2]): 29%
inhibition at 1 µM (β-secretase (BACE) [2]): 27%
inhibition at 3 µM (β-secretase (BACE) [2]): 78%
Ki (β-secretase (BACE) [3]; Ki (μM) (Example 11)): 0.44 µM
inhibition at 0.3 µM (human BACE-1; 0.3 μM compound): 15%
inhibition at 1 µM (human BACE-1): 46%
IC50 (human BACE-1): 700 nM
Structure (SMILES): CN(C(=O)CCC(c1cc2cc(Oc3ccccc3)ccc2nc1N)C1CCCCC1)C1CCCCC1 (centres unmarked) [compound 16]

% Inhibition (Example 10) @ 0.3 μM (β-secretase (BACE) [2]; 0.3 µM): 34% and 64%
inhibition at 1 µM (β-secretase (BACE) [2]): 88%
% Inhibition (Example 10) @ 1 μM (β-secretase (BACE) [2]; 1 µM): 93%
inhibition at 3 µM (β-secretase (BACE) [2]): 127%
% Inhibition (Example 10) @ 3 μM (β-secretase (BACE) [2]; 3 µM): 125%
Ki (β-secretase (BACE) [3]; Ki (μM) (Example 11)): 0.12 µM and 0.31 µM
inhibition at 1 µM (human BACE-1): 78%
IC50 (human BACE-1): 420 nM
Structure (SMILES): CN(C(=O)CCC(c1cc2cc(Oc3ccccc3)ccc2nc1N)C1CCOCC1)C1CCCCC1 (centres unmarked) [compound 23]

% Inhibition (Example 10) @ 0.3 μM (β-secretase (BACE) [2]): 56%
% Inhibition (Example 10) @ 1 μM (β-secretase (BACE) [2]): 103%
% Inhibition (Example 10) @ 3 μM (β-secretase (BACE) [2]): 132%
Ki (β-secretase (BACE) [3]; read-out: Ki (μM) (Example 11)): 0.066 µM
Structure (SMILES): Nc1nc2ccc(Oc3ccccc3)cc2cc1C(CCC(=O)NC12CC3CC(CC(C3)C1)C2)C1CCOCC1 (centres unmarked) [compound 24]

inhibition at 0.3 µM (β-secretase (BACE) [2]): 83%
inhibition at 1 µM (β-secretase (BACE) [2]): 114%
inhibition at 3 µM (β-secretase (BACE) [2]): 126%
Ki (β-secretase (BACE) [3]; Ki (μM) (Example 11)): 0.16 µM
Structure (SMILES): CN(C(=O)CC[C@H](c1cc2cc(Oc3ccccc3)ccc2nc1N)C1CCOCC1)C1CCCCC1 [compound 25]

Ki (β-secretase (BACE) [3]; Ki (μM) (Example 11)): 0.1 µM
Ki (β-secretase (BACE) [1]): 280 nM
Structure (SMILES): CN(C(=O)CCC1Cc2cc(Oc3ccccc3)ccc2N=C1N)C1CCCCC1 (centres unmarked) [compound 101]

% Inhibition 3 μM (β-secretase (BACE) [1]): 12%
% Inhibition 10 μM (β-secretase (BACE) [1]): −36%
Structure (SMILES): CC(C)(C)OC(=O)CCc1cc2cc(Oc3ccccc3)ccc2nc1N [compound 501]

% Inhibition 3 μM (β-secretase (BACE) [1]): −8%
% Inhibition 10 μM (β-secretase (BACE) [1]): −16%
Structure (SMILES): Nc1nc2ccc(Oc3ccccc3)cc2cc1CCC(=O)O [compound 502]
